According to patent US11382884B2, “Method for reducing lung infection” (priority 2017, dated 2022):
Like-named read-outs stand apart in the source and are kept apart here.

Columns and labels:
[1] = system: P. aeruginosa WACC91 biofilms; experiment: Checkerboard, biofilm growth (crystal violet staining), tobramycin with CaEDTA or buffered CaEDTA; type: cell-based, Pseudomonas aeruginosa
Protocol: (§1) Growth method 1: Cells were grown in M9 medium supplemented with arginine and MgSO4, in polystyrene 96-well plates (Nunc) by seeding each well with […] of an overnight culture of P. aeruginosa strain WACC 91 and incubating at 37° C. for 24 hours.
(§2) Anaerobic cultures were incubated in a closed chamber with anaerobic sachets to remove oxygen.
(§3) Planktonic growth was monitored by OD reading or plate counting. Biofilms were quantified by staining with 40 μl of crystal violet stain (1% w/v in water) for 10 min at room temperature, washing twice with 250 μl of water, dissolving the stain in 250 μl of 50% ethanol and reading optical density at 595 nm.
(§4) Cells of P. aeruginosa WACC91 were grown according to method 1 and tested in a checkerboard assay against tobramycin and CaEDTA in varying concentrations.

P. aeruginosa biofilms = system: P. aeruginosa biofilms
Protocol: Biofilm disruption or killing was monitored by growing cells as described and removing planktonic cells by pipetting. The attached biofilm was washed carefully with sterile PBS three times, and fresh medium containing the treatment (tobramycin alone or together with CaNa2EDTA in solution, tris-buffered solution, or as dry powder particles) was added. Plates were incubated for a further 24 hours and metabolic activity was measured. Biofilms were washed as described above, then fresh medium containing 0.02% w/v resazurin was added. Plates were shaken briefly to mix, then incubated at 37° C. for 2 hours. Metabolic activity, as reflected by the conversion of resazurin to resafurin, was assessed by measuring the increase in fluorescence at an excitation wavelength of 530 nm with detection at 590 nm.

P. aeruginosa WACC91 = details: for interaction with tobramycin, planktonic growth (OD600 nm): checkerboard
Protocol: as §1, §2, §3, §4

[2] = single dose of 75 mg CaEDTA; after 30 minutes; FIG. 28
Protocol: Vials were then centrifuged at 100 g for 5 min to sediment precipitated proteins and 754 μL of the methanol extract taken for derivatisation. […] Derivatised extract (1 μl) was injected into a Waters microflow HPLC equipped with a triple quad mass […] detector.

[3] = Protocol: Subjects were then discharged and treatment was continued twice a day for four weeks. Patients were monitored for a further four weeks, bringing the total study time to 10 weeks. At each study visit, lung function was measured by spirometry. Data was recorded as the best of three attempts, and results were expressed as % predicted.
[4] = system: P. aeruginosa clinical strain biofilms; experiment: Biofilms in hanging drops of CF mucus treated with nebulised tobramycin and/or aerosolised EDTA particles; type: cell-based, Pseudomonas aeruginosa
[5] = in vivo; cited from earlier work
P. aeruginosa [6] = details: in vivo; cited from earlier work
[7] = remark: listed apart in the source
Protocol: (§5) Subjects are then discharged and treatment continued twice a day for four weeks. Subjects are monitored for a further four weeks, bringing the total study time to 10 weeks. Sputum is collected by induction with nebulised 3% hypertonic saline at 8-10 L/min for […]. Samples are collected prior to treatment, and at 2, 6 and 10 weeks, processed according to the relevant protocol and stored at −80° C.
(§6) Expectorated sputum is stored in RNAlater®, total RNA is extracted using a Qiagen RNEasy® or similar extraction kit, converted into cDNA, and inflammatory markers are monitored using qPCR as described by Sivaneson et al. (Sivaneson, M., Mikkelsen, H., Ventre, I., Bordi, C., and Filloux, A. (2011). Two-component regulatory systems in Pseudomonas aeruginosa: an intricate network mediating fimbrial and efflux pump gene expression. Mol Microbiol 79, 1353-1366) and quantified relative to known housekeeping genes, such as actin and/or GAPDH.
(§7) Expectorated sputum is frozen directly without processing and assayed for inflammatory markers as above. As a measure of structural damage, levels of matrix metalloproteinases (MMPs) and tissue inhibitors of metalloproteinases (TIMPs) are measured using gelatin zymography and immunoassays, respectively, as previously described (Gaggar et al., Eur Respir J. 2011 38(3): 721-727; Garratt et al., Eur Respir J. 2015 46(2):384-94). The amount of iron in the sputum is quantified by ICP-MS as previously described (Hunter et al., MBio. 2013 4(4):1-8). The amount of iron-binding proteins is assessed using immunoassays. Oxidative stress is assessed by measuring glutathione (GSSG and GSH) using immunoassays as previously described (Kettle et al., Eur Respir J. 2014 44(1):122-9).

[8] = remark: listed apart in the source
Protocol: A single centre, randomised, double blind, crossover study of cystic fibrosis subjects is carried out. Subjects are randomised for treatment with inhaled CaEDTA or saline (placebo) 2-4 times a day for two weeks.
Iron levels, inflammatory markers, MMP/TIMP and FEV1 are monitored as above. Myeloperoxidase activity are also assayed as a measure of neutrophilic inflammation as previously described (Gaggar et al., 2011). 3-chlorotyrosine is measured as a biomarker of the potent oxidant hypochlorous acid. Levels are measured using stable isotope dilution gas chromatography with mass spectrometry (Gaggar et al., 2011). Protein carbonyls are measured as an indicator of ROS using a commercial immunoassay kit (Gaggar et al., 2011).

[9] = in vivo; cited from earlier work; remark: listed apart in the source
[10] = remark: listed apart in the source
Protocol: Subjects with CF who need treatment with dry powder tobramycin are allocated into four cohorts and receive 112 mg dry powder twice a day for 28 days. In addition, Cohort 1 (patients>18 years) receives ascending doses of dry powder CaEDTA (37.5 mg BID for 1 week; 75 mg BID for 2 weeks, 150 mg BID for 1 week). Patients in cohort 2 (>18 years) receive CaEDTA (37.5 mg BID for 1 week; 75 BID for 2 weeks; 75 mg QID for 1 week). Patients in cohort 3 (12-18 years) receive CaEDTA (37.5 mg BID for 1 week; 75 mg BID for 2 weeks, 150 mg BID for 1 week. Finally, a control cohort receives tobramycin alone for 28 days.
Sputum samples are collected weekly and assessed for markers of infection and inflammation. Bacteria are monitored by sputum colony counts. As a measure of structural damage, levels of matrix metalloproteinases (MMPs) and tissue inhibitors of metalloproteinases (TIMPs) are measured using gelatin zymography and immunoassays, respectively, as previously described (Gaggar et al., Eur Respir J. 2011 38(3): 721-727; Garratt et al., Eur Respir J. 2015 46(2):384-94). The amount of iron in the sputum is quantified by ICP-MS as previously described (Hunter et al., 2013). The amount of iron-binding proteins is assessed using immunoassays. Myeloperoxidase activity is also assayed as a measure of neutrophilic inflammation as previously described (Gaggar et al., 2011). 3-chlorotyrosine is measured as a biomarker of the potent oxidant hypochlorous acid. Levels are measured using stable isotope dilution gas chromatography with mass spectrometry (Gaggar et al., 2011). Protein carbonyls are measured as an indicator of reactive oxygen species (ROS) using a commercial immunoassay kit (Gaggar et al., 2011). Oxidative stress is assessed by measuring glutathione (GSSG and GSH) using immunoassays as previously described (Kettle et al., 2014). Gene expression of inflammatory and oxidative stress markers (e.g. IL-8, IL-6, TNFa) will also be monitored by Nanostring, and proteins will be measured by ELISA. Oxidative stress can also be measured via metabolites, such as molondialdehyde (colorimetric assay) or 8-isoprostane (ELISA). Iron will be measured by elemental analysis using laser ablation-inductively coupled plasma-mass spectrometry (LA-ICP-MS).

P. aeruginosa [11] = details: after two weeks of treatment, 300 mg EDTA/day nebulised with tobramycin; sputum; FIG. 25
Description: Patients were monitored for a further four weeks, bringing the total study time to 10 weeks.

[12] = remark: listed apart in the source
Protocol: as §5
as §6, with “RNAlater,” for “RNAlater®,”
as §7, with “MBio 2013,” for “MBio. 2013”

[13] = 4 ug/ml tobramycin, 6.25 mM CaEDTA, aerobic and anaerobic, FIG. 5
[14] = EDTA group compared with placebo group

SMILES: O=C([O-])CN(CCN(CC(=O)[O-])CC(=O)[O-])CC(=O)[O-].[Ca+2].[Na+].[Na+] [CaEDTA]
- biofilm growth when CaEDTA is added to tobramycin [1, 13]: reduced
- interaction with tobramycin, biofilm growth (CV staining) ([1]; aerobic conditions, checkerboard, FIG. 2): synergistic effect
- effect on the concentration of tobramycin required to block biofilm formation ([1]; aerobic, FIG. 2): lowers the concentration of tobramycin required
- interaction with tobramycin, biofilms ([1]; anaerobic conditions, checkerboard, FIG. 4): synergistic effect
- effect on efficacy of tobramycin against existing biofilms (metabolic activity) (P. aeruginosa biofilms; FIG. 6): increases the efficacy
- dependence of the synergistic effect on mode of delivery (P. aeruginosa biofilms; solution or dry powder, FIG. 6B): does not depend on the mode of delivery
- interaction with tobramycin, metabolism of biofilms (P. aeruginosa biofilms; submicron particles of CaEDTA, aerosolised, 96-well plates, FIG. 6): synergistic effect
- effect on killing of biofilms by tobramycin (P. aeruginosa biofilms; tobramycin concentrations<1 mg/ml, FIG. 6A): substantially enhances killing
- planktonic growth when CaEDTA is added to tobramycin (P. aeruginosa WACC91; [13]): reduced
- interaction with tobramycin, planktonic growth (OD600 nm) (P. aeruginosa WACC91; aerobic conditions, FIG. 1): synergistic effect
- interaction with tobramycin, planktonic growth (OD600 nm) (P. aeruginosa WACC91; anaerobic conditions, FIG. 3): synergistic effect
- effect on the MIC of tobramycin (P. aeruginosa WACC91; planktonic cells, aerobic conditions, FIG. 1): lowers the MIC
- lowest effective concentration in vitro (P. aeruginosa WACC91; with tobramycin, FIGS. 1B and 2B): 0.078 mM
- EDTA inside mucus plugs [2]: up to 1.34 mM
- improvement in lung function (FEV1), average ([3]; 300 mg/day for two weeks (75 mg QID), FIG. 26): 16 % points
- biofilm viability (BacLight LIVE/DEAD, confocal microscopy) ([4]; 5 min treatment, nebulised tobramycin 20 mg/ml and/or aerosolised EDTA particles 10 mg/ml, 16 hours incubation, FIG. 24A): some degree of killing
- interaction with tobramycin on biofilms in CF mucus ([4]; submicron particles of CaEDTA, tobramycin 325 μg/ml final in droplets, FIG. 24): act synergistically

SMILES: O=C(O)CN(CCN(CC(=O)O)CC(=O)O)CC(=O)O [EDTA, ethylene diamine tetraacetic acid]
- bronchoconstriction [5]: concentration-dependent bronchoconstriction
- treatment of bacterial infections by inhaled EDTA alone (P. aeruginosa [6]): does not treat bacterial infections
- gene expression of inflammatory markers (qPCR, sputum) [7, 14]: mean reduction
- inflammatory markers in sputum [7, 14]: reduction
- balance between MMPs and TIMPs ([7]; especially MMP-9 and TIMP-1): change in the balance
- MMP/TIMP balance ([8]; compared with placebo): altered
- levels of inflammatory markers ([8]; compared with placebo): reduced levels
- levels of iron ([8]; compared with placebo): reduced levels
- mean FEV1 ([8]; compared with placebo): increased
- mean levels of carbonyls ([8]; human, in vivo): lower mean levels
- mean levels of chlorotyrosine ([8]; human, in vivo): lower mean levels
- myeloperoxidase activity ([8]; human, in vivo): reduced
- effect on FEV1 [9]: no effect on FEV1
- inflammatory markers in sputum [10, 14]: reduction
- FEV1 ([10]; compared with control patients): increase
- bacterial load in sputum ([10]; compared with control patients): reduction
- balance between MMPs and TIMPs ([10]; especially MMP-9 and TIMP-1): change in the balance
- iron levels in sputum ([10]; human, in vivo): decrease
- mean change in FEV1 ([3]; 2, 6 and 10 weeks after start of treatment, FIG. 26): clear improvement in lung function
- dose dependence of effect on lung function ([3]; mg EDTA/kg body weight, FIG. 27): dose-dependent effect on lung function
- reduction in colony counts (P. aeruginosa [11]): > 400 fold
- gene expression of inflammatory markers (qPCR, sputum) [12, 14]: mean reduction
- inflammatory markers in sputum [12, 14]: reduction
- FEV1 ([12]; compared with placebo (carrier only)): increase
- balance between MMPs and TIMPs ([12]; especially MMP-9 and TIMP-1): change in the balance
- iron levels in sputum ([12]; human, in vivo): decrease
